This note sets out measurements from ChEMBL document CHEMBL5380835, “Discovery of Clinically Used Octenidine as NRAS Repressor That Effectively Inhibits NRAS-Mutant Melanoma” (J Med Chem, 2023).

For assay [1], the system named is SK-MEL-2. As to the kind of experiment: Cytotoxicity against human SK-MEL-2 cells expressing NRAS mutant assessed as cell growth inhibition incubated for 48 hrs by MTT assay. It is filed as functional, cell-based. The conditions noted are these: SK-MEL-2, 48 h. In general terms: Tetrazolium dyes change colour on reduction, which living cells bring about.
Assay [2] can be described thus: Binding affinity to 5'-FAM-labeled to NRAS RNA G-quadruplex 5'-r(UGUGGGAGGGGCGGGUCUGGG)-3' (unknown origin) assessed as dissociation constant by fluorescence quenching assay.
The test system of assay [3] is SK-MEL-2. As to the kind of experiment: Synergistic cytotoxicity against human SK-MEL-2 cells expressing NRAS mutant assessed as combination index measured for 48 hrs in presence of Rapamycin by MTT assay. In kind it is functional.
The test system of assay [4] is SK-MEL-2. As to the kind of experiment: Synergistic cytotoxicity against human SK-MEL-2 cells expressing NRAS mutant assessed as combination index measured for 48 hrs in presence of MK2206 by MTT assay. It is filed as functional.
In assay [5] the test system is SK-MEL-2. Put plainly: Antiproliferative activity against human SK-MEL-2 cells assessed as inhibition of colony formation at 1.5 uM measured after 10 days by crystal violet staining based assay. It is filed as functional, cell-based. The note with it: time 10.0 day.
For assay [6], the system named is SK-MEL-2. As to the kind of experiment: Effect on NRAS protein translation in human SK-MEL-2 cells at 1/2 times IC50 incubated for 24 hrs by Western blot analysis. In kind it is functional, cell-based.
Assay [7] concerns SK-MEL-2. Put plainly: Cytotoxicity against human SK-MEL-2 cells assessed as cell growth inhibition incubated for 24 hrs by MTT assay. The conditions noted are these: SK-MEL-2, 24 h. It is filed as functional, cell-based.
Assay [8] has as its system SK-MEL-2. As to the kind of experiment: Upregulation of NRAS mRNA level in human SK-MEL-2 cells at 1/2 times IC50 incubated for 24 hrs by RT-qPCR analysis. It is filed as functional, cell-based.
Assay [9] concerns SK-MEL-2. As to the kind of experiment: Synergistic cytotoxicity against human SK-MEL-2 cells expressing NRAS mutant assessed as combination index measured for 48 hrs in presence of LY3214996 by MTT assay. In kind it is functional.
For assay [10], the system named is SK-MEL-2. Put plainly: Synergistic cytotoxicity against human SK-MEL-2 cells expressing NRAS mutant assessed as combination index measured for 48 hrs in presence of MEK-162 by MTT assay. In kind it is functional.

Active and inactive are the calls of the source. The calls are words filed in the database; no cut-off is given here. Bounds are passed on as bounds.

For `CCCCCCCCNc1cc[n+](CCCC[n+]2ccc(NCCCCCCCC)cc2)cc1`, the half-maximal inhibitory concentration (IC50) (in general, the concentration needed to halve the response being measured) in the assay with SK-MEL-2 [1] turned out to be 5610 nM. The Kd (as a rule, the constant that tells how readily two partners part at equilibrium) in assay [2] worked out at 1340 nM.
In the case of `CCCCCNc1cc[n+](CCCCCCCCCC[n+]2ccc(NCCCCC)cc2)cc1`, the IC50 with SK-MEL-2 [1] was 3000 nM. The Kd in assay [2] came out at 1850 nM.
The corresponding values for `CCCCCCNc1cc[n+](CCCCCCCCCC[n+]2ccc(NCCCCCC)cc2)cc1` are 910 nM and 290 nM.
In the case of `Cn1nccc1Nc1nccc(-c2cc3c(s2)C(C)(C)N(CCN2CCOCC2)C3=O)n1` [TEMUTERKIB], the CI in the assay with SK-MEL-2 [3] and in the assay on SK-MEL-2 [4] was 0.5 each time. Moreover, the inhibition entry in the assay on SK-MEL-2 [5] was “Active”.
Turning to `CCCCCCNc1cc[n+](CCCC[n+]2ccc(NCCCCCC)cc2)cc1`, the IC50 in the assay with SK-MEL-2 [1] came to 17300 nM. Also, the Kd in assay [2] worked out at 760 nM.
For `CCCNc1cc[n+](CCCCCC[n+]2ccc(NCCC)cc2)cc1`, the Kd in [2] amounted to 2990 nM.
`CN(C)c1ccc(C(=C2C=CC(=[N+](C)C)C=C2)c2ccc(N(C)C)cc2)cc1` [GENTIAN VIOLET]: the IC50 in the assay with SK-MEL-2 [1] was determined as 1360 nM; in the assay on SK-MEL-2 [7], 2890 nM. In addition, the outcome in the assay with SK-MEL-2 [6] was inactive. For the same molecule, the result in the assay with SK-MEL-2 [8] was Active.
As for `CO[C@H]1C[C@@H]2CC[C@@H](C)[C@@](O)(O2)C(=O)C(=O)N2CCCC[C@H]2C(=O)O[C@H]([C@H](C)C[C@@H]2CC[C@@H](O)[C@H](OC)C2)CC(=O)[C@H](C)/C=C(\C)[C@@H](O)[C@@H](OC)C(=O)[C@H](C)C[C@H](C)/C=C/C=C/C=C/1C` [SIROLIMUS], the CI in the assay on SK-MEL-2 [9] and in the assay on SK-MEL-2 [10] was 0.5 in each case. Moreover, the inhibition result with SK-MEL-2 [5] is “Active”.
Turning to `Nc1ccc2cc3ccc(N)cc3nc2c1` [PROFLAVINE], the IC50 was determined as 1600 nM with SK-MEL-2 [1] and 5310 nM in the assay on SK-MEL-2 [7]. Moreover, the outcome with SK-MEL-2 [6] was inactive. Moreover, the result in the assay on SK-MEL-2 [8] was Active.
With `CCCNc1cc[n+](CCCCCCCCCC[n+]2ccc(NCCC)cc2)cc1`, the concentration for half-maximal inhibition (IC50) with SK-MEL-2 [1] worked out at 8360 nM. Besides, the Kd in assay [2] was 1720 nM.
As for `CCCCCNc1cc[n+](CCCC[n+]2ccc(NCCCCC)cc2)cc1`, in the assay on SK-MEL-2 [1], the IC50 was over 25000 nM. Besides, the Kd in assay [2] stood at 1660 nM.
On to `NC1(c2ccc(-c3nc4ccn5c(=O)[nH]nc5c4cc3-c3ccccc3)cc2)CCC1` [MK-2206], for which the CI in the assay on SK-MEL-2 [9] and in the assay with SK-MEL-2 [10] was 0.5 each time.
Turning to `CCCCCCNc1cc[n+](CCCCCC[n+]2ccc(NCCCCCC)cc2)cc1`, in the assay on SK-MEL-2 [1], the IC50 is 8610 nM. Besides, in assay [2], the Kd was 740 nM.
On to `CCCCCCCCN=c1ccn(CCCCCCn2ccc(=NCCCCCCCC)cc2)cc1`, for which, in the assay with SK-MEL-2 [1], the IC50 stood at 1770 nM. Moreover, the Kd in assay [2] worked out at 320 nM.
Consider `CCCNc1cc[n+](CCCC[n+]2ccc(NCCC)cc2)cc1`, for which, in [2], the Kd was 210 nM.
With `CCCCCNc1cc[n+](CCCCCC[n+]2ccc(NCCCCC)cc2)cc1`, the IC50 with SK-MEL-2 [1] is over 25000 nM. The Kd in [2] was determined as 1290 nM.
